“And” between values parts separate entries of the source, which are not always exact repeats. Identical values can stand only once.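 These data come from cells grown in 96-well plates and exposed to compound for 48 hours at five concentrations. GI50 is the concentration that inhibits growth by half. Definition used: TGI = concentration required for complete inhibition of growth.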
How the values were obtained:
Experiment in all cases: growth of human tumour cells (NCI), 48 h
SNB-75 CNS = system: SNB-75 CNS
EKVX NSCLC = system: EKVX NSCLC
HL-60(TB) leukemia = system: HL-60(TB) leukemia
HCC-2998 colon = system: HCC-2998 colon
K-562 leukemia = system: K-562 leukemia
RPMI-8226 leukemia = system: RPMI-8226 leukemia
BT-549 breast = system: BT-549 breast
NCI-H23 lung = system: NCI-H23 lung
MDA-N = system: MDA-N
UO-31 renal = system: UO-31 renal

| Compound | TGI (SNB-75 CNS) | TGI (EKVX NSCLC) | TGI (HL-60(TB) leukemia) | TGI (HCC-2998 colon) | TGI (K-562 leukemia) | TGI (RPMI-8226 leukemia) | TGI (BT-549 breast) | TGI (NCI-H23 lung) | TGI (MDA-N) | TGI (UO-31 renal) | GI50 (HL-60(TB) leukemia) | GI50 (K-562 leukemia) | GI50 (RPMI-8226 leukemia) | GI50 (BT-549 breast) | GI50 (MDA-N) | GI50 (UO-31 renal) |
| --- | --- | --- | --- | --- | --- | --- | --- | --- | --- | --- | --- | --- | --- | --- | --- | --- |
| CC(C)C(/C=C/c1ccc(Cl)c(Cl)c1)=N\NC(=O)N/N=C(/C=C/c1ccc(Cl)c(Cl)c1)C(C)C | > 100 µM | > 100 µM | > 100 µM | > 100 µM | > 100 µM | > 100 µM | > 100 µM | > 100 µM | > 100 µM | > 100 µM |  |  |  |  |  |  |
| CCOP(=O)(OCC)C(C#N)Cc1ccco1 (stereo not drawn) | > 10 µM | > 10 µM | > 10 µM | > 10 µM | > 10 µM | > 10 µM | > 10 µM | > 10 µM | > 10 µM | > 10 µM |  |  |  |  |  |  |
| CCCCCCCCCCCCCCCC(=O)N(CCCCCCCCCCC(=O)O)CC(O)C(O)C(OC1OC(CO)C(O)C(O)C1O)C(O)CO (stereo not drawn) | > 100 µM | > 100 µM | 47.7 µM | 49.5 µM | 41.4 µM | 49.8 µM | 68 µM | > 100 µM | > 100 µM | > 100 µM |  |  |  |  |  |  |
| Cc1ccc(NC(=O)CSc2nc(=O)[nH]c3nc[nH]c23)cc1 | > 100 µM | > 100 µM | > 100 µM | > 100 µM | > 100 µM | > 100 µM | > 100 µM | > 100 µM | > 100 µM | > 100 µM |  |  |  |  |  |  |
| CCNC(=O)c1c(O)c2ccccc2[nH]c1=O | > 100 µM | > 100 µM | > 100 µM | > 100 µM | > 100 µM | > 100 µM | > 100 µM | > 100 µM | > 100 µM | > 100 µM |  |  |  |  |  |  |
| CC(=O)OC1COC(Nc2nc(NCc3ccccc3)n(C)c(=O)c2N=O)C(OC(C)=O)C1OC(C)=O (stereo not drawn) | > 10 µM | > 10 µM | > 10 µM | > 10 µM | > 10 µM | > 10 µM | > 10 µM | > 10 µM | > 10 µM |  |  |  |  |  |  |  |
| C=C1C(=O)O[C@@H]2C=C(C)C3=CC(=O)[C@](C)(C[C@H](OC(=O)/C(C)=C\C)[C@@H]12)O3 | 26.3 µM | 8.78 µM | 0.563 µM | 3.06 µM | 2.04 µM | 0.938 µM | 1.98 µM | 3.43 µM | 1.49 µM | 2.37 µM |  |  |  |  |  |  |
| Cc1ccc2oc(=O)c(C(=O)Nc3nc(C45CC6CC(CC(C6)C4)C5)cs3)cc2c1 | > 100 µM | > 100 µM | > 100 µM | > 100 µM | > 100 µM | > 100 µM | > 100 µM | > 100 µM | > 100 µM | > 100 µM |  |  |  |  |  |  |
| Cc1cc(S(=O)(=O)Nc2nc(N)nc(N(C)C)n2)c(SCC(=O)O)cc1Cl | > 10 µM | > 10 µM | > 10 µM | > 10 µM | > 10 µM | > 10 µM | > 10 µM | > 10 µM | > 10 µM | > 10 µM |  |  |  |  |  |  |
| COc1cc2c(=O)cnoc2cc1O | > 100 µM | > 100 µM | > 100 µM | > 100 µM | > 100 µM | > 100 µM | > 100 µM | > 100 µM | > 100 µM | > 100 µM |  |  |  |  |  |  |
| O=C(O)CC1NCc2cc3ccccc3nc21 (stereo not drawn) | > 100 µM | > 100 µM | > 100 µM | > 100 µM | > 100 µM | > 100 µM | > 100 µM | > 100 µM | > 100 µM | > 100 µM |  |  |  |  |  |  |
| CC1OC(OC2C(OC(=O)[C@]34CCC(C)(C)C[C@H]3C3=CC[C@@H]5[C@@]6(C)CC[C@H](OC7OC(C(=O)O)C(O)C(OC8OCC(O)C(O)C8O)C7O)C(C)(C)[C@@H]6CC[C@@]5(C)[C@]3(C)CC4)OCC(O)C2O)C(O)C(OC2OCC(O)C(O)C2O)C1OC1OCC(O)C(OC2OCC(O)C(O)C2O)C1O (stereo partly drawn) | 29.8 µM and 39.3 µM | 22.6 µM and 35.7 µM | 6.18 µM and 29.5 µM | 4.13 µM and 11.9 µM | 21.4 µM and 33.6 µM | 19.8 µM and 35.3 µM | 25.6 µM and 46.8 µM | 21.7 µM and 33 µM | 19.8 µM and 31.8 µM | 4.99 µM and 21.1 µM | 2.28 µM and 12.6 µM | 7.42 µM and 17.1 µM | 5.62 µM and 16.9 µM | 9.13 µM and 20.3 µM | 7.14 µM and 16.4 µM | 2.12 µM and 9 µM |
| C=C1C(=O)O[C@@H]2C[C@]3(C)CC[C@]4(C)[C@H](CC[C@@H]5[C@@]6(C)CCC(=O)C(C)(C)[C@@H]6CC[C@]54C)[C@H]3[C@H]12 | 43.9 µM | 38 µM | 3.72 µM | 33.7 µM | 16.7 µM | 5.8 µM | 37.4 µM | 57.3 µM | 30.9 µM | 28.3 µM |  |  |  |  |  |  |
| O=C(O)/C(Cc1ccc([N+](=O)[O-])cc1)=N\O |  | > 100 µM | > 100 µM | > 100 µM | > 100 µM | > 100 µM | > 100 µM | > 100 µM | > 100 µM | > 100 µM |  |  |  |  |  |  |
| O=[N+]([O-])c1ccc(C=NCC2CCCN3CCCCC23)cc1 (stereo not drawn) | > 100 µM | > 100 µM | > 100 µM | > 100 µM | > 100 µM | 48.1 µM | > 100 µM | > 100 µM | > 100 µM | > 100 µM |  |  |  |  |  |  |
| O=C(N/N=C(/COc1ccc([N+](=O)[O-])cc1)N=Cc1ccncc1)c1ccncc1 | > 100 µM | > 100 µM | > 100 µM | > 100 µM | > 100 µM | > 100 µM | > 100 µM | > 100 µM | > 100 µM |  |  |  |  |  |  |  |
